Reference: patent US9750841B2, “Biodegradable medical adhesive and preparation method and use thereof” (INSTITUTE OF PHARMACOLOGY AND TOXICOLOGY ACADEMY OF …, priority 2011, dated 2017)

Legend:
[1] = Degradation of cured adhesive in PBS buffer; assay type: physicochemical; details: 14 days, 0.1 M phosphate buffer pH 7.2-7.4, 37.5° C., average of three samples
Source text: After 14 days, the residual solids were weighed. The results were used to evaluate the degradation properties.

[2] = Adhesion test of skin incision injury, rats; assay type: in vivo; details: 2 cm dorsal skin incision, observed over 7 days
Method: (§1) Five adult rats and five guinea pigs were unhaired on the back, and subjected to abdominal anesthesia. After the back was disinfected, a longitudinal incision of about 2 cm in length was cut about 1 cm next to the dorsal line, deep to muscular layer. […] On the other side of the back, an incision of the same size was cut, and the wound was treated in the same way with the control adhesive n-butyl cyanoacrylate. Finally, the operative sites were bandaged using gauze.

[3] = TEM test of adhesive structure; assay type: physicochemical; details: 0.1 mg/mL dilution in water, phosphotungstic acid staining
Method: 20 mg of adhesive (A, n-butyl cyanoacrylate as control; B, formulated adhesive J01 (bis-α-cyanoacrylic acid PEG2000 ester:n-butyl cyanoacrylate 1:1, i.e., the formulated adhesive in Example 1) was dissolved in 1 mL of redistilled acetone, to obtain a homogeneous solution, which was diluted by 100-fold. 0.5 mL of the dilution was taken and mixed with 0.5 mL of deionized water. Acetone was distilled off, and water was supplemented till 1 mL, to obtain a 0.1 mg/mL dilution. 15 uL of the dilution was dropped on a copper web-like of electron microscopy, and settled for 15 min. Then, water was removed by adsorption with filter paper. After staining with 5 uL of phosphotungstic acid for 2 min, the samples were observed by transmission electron microscopy.

[4] = rat, in vivo
Method: Two groups of adult rats, each six, were taken. The abdominal cavity was opened, a section of small intestine was lifted and stretched out with a biodegradable thread, approximately 1 cm away from the body, and in an inverted “U” shape. […] After the adhesive bond was completely cured and the small intestine was adhered together (about 1 minute), the small intestine was put back into the abdominal cavity, followed by suturing. Normal healing time of biological tissue was about 7-10 days. After 2 weeks, the small intestine was stretched out again, for observing the changes of the small intestine per se and the adhesive bond.

[5] = Intestinal skyrocketing compression test in rats; assay type: in vivo, SD rats; details: rat small intestine, 2 mm hole closed with 5 uL adhesive, tested after 3 min, seven animals per group
Method: Twenty SD rats (purchased from Experimental Animal Center of Academy of Military Medical Sciences) were anaesthetized by intraperitoneal injection of 45 mg/kg sodium pentobarbital, and unhaired on the abdomen. The abdominal cavity was opened, and a section of small intestine 45 mm was taken out. One end of the small intestine was ligated with a silk thread, and the other end was cut to make a small incision, which was then connected to a three-way tube in connection with a pressure gauge and a tension transducer. A syringe needle 2 mm in diameter was used to open a small hole in the small intestine. After cleaning off drainage with cotton, the small hole was rapidly closed by smearing 5 uL medical adhesive, and then test was conducted after standing for 3 min. […] The pressure value at this point was just the maximum tolerable pressure. There were seven animals per group, and the average value and variance were calculated.

[6] = Accelerated degradation in 0.1 N NaOH solution; assay type: physicochemical; details: disappearance to the naked eye
Method: Further accelerated degradation test was carried out in a 0.1 N NaOH solution. The operation method was the same as that provided in this example, with the use of formulated adhesive J01 and the control as samples. The time point when the adhesive bond completely disappeared to the naked eye was regarded as the complete degradation time.

[7] = Adhesion test of skin incision injury of dog; assay type: in vivo; details: 4 cm skin incision, two stitches plus adhesive, after one week
Method: Adult test dogs (purchased from Experimental Animal Center of Academy of Military Medical Sciences) were unhaired on the neck and back, and disinfected. A longitudinal incision of about 4 cm in length was cut on the left side, deep to muscular layer. […] On the other side of the same position, an incision of the same size was cut, and also sutured in two stitches. Then, the wound was treated in the same way with n-butyl cyanoacrylate.

[8] = Test of curing time of formulated adhesives on pigskin; assay type: physicochemical; details: between two pieces of pigskin, room temperature
Source text: Test Method: The medical adhesives of different formulations in Examples 1 and 2 were respectively dropped in a small amount on the surface of one piece of pigskin at room temperature, and the other piece of pigskin was rapidly lapped thereon; the two pieces of pigskin were respectively pulled in opposite directions, to test the adhesion between them. The duration starting from the generation of adhesion between the two pieces of pigskin to the complete cure of the liquid adhesive between the two pieces of pigskin after lapping for a certain time was designated as the curing time.

[9] = Adhesion test of skin incision injury, guinea pigs; assay type: in vivo; details: 2 cm dorsal skin incision, observed over 7 days
Method: as §1

Compound: C=C(C#N)C(=O)OCCCC [n-butyl cyanoacrylate]
- Residual solids % in PBS [1]: 95.74%
- wound closure [2]: well closed
- structure observed by transmission electron microscopy [3]: relatively solid and dense microsphere structure
- changes of the small intestine tissue [4]: significantly had hyperplasia and significantly became thicker
- maximum tolerable pressure [5]: 120.22±26.81 mmHg
- complete degradation time in NaOH (solids completely disappeared) [6]: 4 days
- wound healing [7]: good healing
- curing time [8]: 5 to 15 s
- wound closure [9]: well closed
